The compounds below were run against hMAT2A (Homo sapiens (Human), UniProt P31153) (assay: Phosphate Sensor Fluorescence Assay (MAT2A enzyme inhibition)). Details: L-methionine 500 uM, ATP 500 uM, class symbols.
Format: biochemical
Procedure: The ability of the compound of present disclosure to inhibit MAT2A enzyme was determined using the Malachite Green or Phosphate Sensor Fluorescence Assay described below.
B. Phosphate Sensor Fluorescence Assay
MAT2A enzyme is incubated with a test compound in DMSO or DMSO and its substrates (L-methionine and ATP) in a microtiter plate. The enzymatic reaction is stopped by the addition of Working Phosphate Sensor Mixture. The plate is analyzed for fluorescence at 450 nm.
Assay Buffer: 50 mM Tris, pH 7.5/50 mM KCl/10 mM MgCl2/0.01% Brij-35/1 mM DTT/0.1% BGG/40 nM PNP/6 uM 7-MEG
L-methionine: 500 uM before the addition of Working Phosphate Sensor Mixture
ATP: 500 uM before the addition of Working Phosphate Sensor Mixture
Test compounds or DMSO were added to the appropriate well suing D300e digital dispenser. 5 μl/well of Assay Buffer was added to the wells corresponding to the negative control and 5 μl/well of MAT2A was added to all the wells except for those corresponding to the negative control. After incubating the plate at room temperature for 15 minutes, 5 μl/well of the 1 mM L-methionine/1 mM ATP mixture was added to all wells. The plate was centrifuged at 1000 rpm for 1 minute and then incubated at room temperature for 1 hour. 5 μl of the Working Phosphate Sensor Mixture was added to all wells and the plate was centrifuged at 1000 rpm for 1 minute. The plate was read for fluorescence at 450 nm after exciting at 430 nm.
Percent inhibition was calculated in Chemical and Biological Information System (CBIS), (ChemInnovation Software Inc.). Curves were fitted by CBIS as % inhibition vs. log [compound concentration] using a 4-parameter inhibition model. Fit=(A+((B−A)/(1+((C/x)^D)))) Res=(y−fit)

Sequence of hMAT2A (P31153 whole entry): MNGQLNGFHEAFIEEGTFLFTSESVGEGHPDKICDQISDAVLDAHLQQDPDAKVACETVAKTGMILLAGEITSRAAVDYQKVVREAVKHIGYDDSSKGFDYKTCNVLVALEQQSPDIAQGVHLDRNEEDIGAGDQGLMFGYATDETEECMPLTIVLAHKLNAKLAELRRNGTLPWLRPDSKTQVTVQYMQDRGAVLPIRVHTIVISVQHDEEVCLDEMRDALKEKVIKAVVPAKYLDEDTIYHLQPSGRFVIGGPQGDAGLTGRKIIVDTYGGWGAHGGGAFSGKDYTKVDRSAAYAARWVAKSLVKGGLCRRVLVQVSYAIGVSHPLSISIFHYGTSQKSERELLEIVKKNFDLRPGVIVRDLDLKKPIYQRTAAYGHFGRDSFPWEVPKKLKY

Row | SMILES | IC50
1 | CNc1nc(=O)n(-c2cccnc2)c2cc(Cl)ccc12 [Example 114, 7-chloro-4-(methylamino)-1-(3-pyridyl)-hydroquinazolin-2-one] | < 200 nM
2 | CCc1ccc2c(NC)nc(=O)n(-c3ccccc3)c2c1 [Example 115, 7-ethyl-4-(methylamino)-1-phenylhydro-quinazolin-2-one] | < 200 nM
3 | CNc1nc(=O)n(-c2nc(C)cs2)c2cc(Cl)ccc12 [Example 117, 7-chloro-1-(4-methyl(1,3-thiazol-2-yl))-4-(methylamino)hydroquinazolin-2-one] | 1000 to 10000 nM
4 | O=c1nc(NCC(F)(F)F)c2ccc(C(F)(F)F)cc2n1-c1ccccc1 [Example 118] | < 200 nM
5 | O=c1nc(NCC(F)F)c2ccc(C(F)(F)F)cc2n1-c1ccccc1 [Example 119, 4-[(2,2-difluoroethyl)amino]-1-phenyl-7-(trifluoromethyl)hydroquinazolin-2-one] | < 200 nM
6 | COc1nc(=O)n(-c2ncccn2)c2cc(C(F)(F)F)ccc12 [Example 120] | 1000 to 10000 nM
7 | O=c1nc(NCC(F)(F)F)c2ccc(C(F)(F)F)cc2n1-c1ncccn1 [Example 121] | 200 to 500 nM
8 | O=c1nc(NCC(F)F)c2ccc(C(F)(F)F)cc2n1-c1ncccn1 [Example 122, 4-[(2,2-difluoroethyl)amino]-1-pyrimidin-2-yl-7-(trifluoromethyl)hydro-quinazolin-2-one] | < 200 nM
9 | CNc1nc(=O)n(-c2ncccn2)c2cc(C(F)(F)F)ccc12 [Example 123, 4-(methylamino)-1-pyrimidin-2-yl-7-(trifluoromethyl)hydroquinazolin-2-one] | 200 to 500 nM
10 | Nc1nc(=O)n(-c2ncccn2)c2cc(C(F)(F)F)ccc12 [Example 124, 4-amino-1-pyrimidin-2-yl-7-(trifluoro-methyl)hydroquinazolin-2-one] | 500 to 1000 nM
11 | Cc1ccccc1-n1c(=O)nc(N)c2ccc(C(F)(F)F)cc21 [Example 125, 4-amino-1-(2-methylphenyl)-7-(trifluoromethyl)hydroquinazolin-2-one] | < 200 nM
12 | Cc1ccccc1-n1c(=O)nc(NCC(F)(F)F)c2ccc(C(F)(F)F)cc21 [Example 126, 1-(2-methylphenyl)-4-[(2,2,2-trifluoro-ethyl)amino]-7-(trifluoromethyl)hydro-quinazolin-2-one] | < 200 nM
13 | Cc1ccccc1-n1c(=O)nc(NCC(F)F)c2ccc(C(F)(F)F)cc21 [Example 127, 4-[(2,2-difluoroethyl)amino]-1-(2-methylphenyl)-7-(trifluoromethyl)hydro-quinazolin-2-one] | < 200 nM
14 | Cc1ccccc1-n1c(=O)nc(N2CC[C@@H](O)C2)c2ccc(C(F)(F)F)cc21 [Example 128, 4-((3R)-3-hydroxypyrrolidin-1-yl)-1-(2-methylphenyl)-7-(trifluoromethyl)hydro-quinazolin-2-one] | < 200 nM
15 | CNc1nc(=O)n(-c2ccccc2C)c2cc(C(F)(F)F)ccc12 [Example 129, 4-(methylamino)-1-(2-methylphenyl)-7-(trifluoromethyl)hydroquinazolin-2-one] | < 200 nM
16 | O=c1[nH]c(=O)n(-c2ccccc2)c2cc(C3CC3)ccc12 [Example 130, 7-cyclopropyl-1-phenyl-1,3-dihydro-quinazoline-2,4-dione] | 500 to 1000 nM

Same assay, conditions: L-methionine 500 uM, ATP 500 uM, numeric bound

Row | SMILES | IC50
17 | Nc1nc(=O)n(-c2ccccc2)c2cc(Cl)cc(-n3nccn3)c12 [Example 112, 4-amino-7-chloro-1-phenyl-5-(1,2,3-triazol-2-yl)hydroquinazolin-2-one] | > 10000 nM
18 | CNc1nc(=O)n(-c2nc(C(F)(F)F)cs2)c2cc(Cl)ccc12 [Example 113, 7-chloro-4-(methylamino)-1-[4-(trifluoromethyl)(1,3-thiazol-2-yl)]hydroquinazolin-2-one] | > 10000 nM
19 | CNc1nc(=O)n(-c2ncc(C)s2)c2cc(Cl)ccc12 [Example 116, 7-chloro-1-(5-methyl(1,3-thiazol-2-yl))-4-(methylamino)hydroquinazolin-2-one] | > 10000 nM

Reference: patent US11046691B1 (IDEAYA BIOSCIENCES, INC., priority 2018, dated 2021)
